Consider eight compounds from article PMC5053523, “In Vitro Antibacterial Activity of Rhodanine Derivatives against Pathogenic Clinical Isolates” (PLoS ONE, 2016).

Converted amounts (≈) assume the structure as drawn. Like-named read-outs stand apart in the source and are kept apart here.

Assay [1] relates to MRSA USA300. Description: MIC against MRSA USA300 with and without 4% human serum albumin. In kind it is cell-based, Staphylococcus aureus. The settings on record: for antibacterial activity in the presence or absence of HSA: MRSA USA300; for MIC: Staphylococcus aureus, read-out: MIC against MRSA USA300. As for the experimental part: The minimum inhibitory concentration (MIC) and the minimum bactericidal concentration (MBC) of rhodanine compounds 1 to 7 were determined against various Gram-positive and Gram-negative pathogens (S1 Table) following the guidelines of the Clinical and Laboratory Standards Institute (CLSI)[4]. The broth microdilution technique was used, followed by subculturing on agar plates that were rhodanine—free. […] The MICs reported represent the lowest concentration of each compound necessary to inhibit bacterial growth and the MBCs represent the lowest concentration required to reduce the initial bacterial inoculum by ≥ 99.9%.
The antimicrobial activity of rhodanine compounds in the presence of 4% human serum albumin (HSA) was tested against MRSA USA300. The MICs of rhodanine compounds and control antibiotics (vancomycin and daptomycin) were tested as described in the methods above using tryptic soy broth spiked with 4% HSA. We also synthesized and tested three more compounds, ethyl ester and amide of rhodanine 2 (Rh 8 and Rh 10, respectively) and ethyl ester of rhodanine 3 (Rh 9) to determine the influence of a carboxyl group modification toward anti-MRSA activity and human serum albumin (HSA) binding.

For assay [2], the system named is Candida albicans. Nature of the assay: MIC against Candida albicans. The assay is classed as cell-based. The conditions noted are these: table prints none.
For assay [3], the system named is Salmonella Typhimurium. Nature of the assay: MIC with/without sub-MIC colistin, Salmonella Typhimurium. The assay is classed as cell-based. The conditions noted are these: Salmonella Typhimurium ATCC 700720. As for the experimental part:
(§1) The MIC of the rhodanines and control antibiotics, in the presence of a sub-inhibitory concentration of colistin or polymixin B nonapeptide (PMBN), against Gram-negative bacteria was evaluated as described before. The antibacterial activity of the rhodanines was further investigated against E. coli SM1411Δ acrAB, a strain that is deficient in the multidrug-resistant AcrAB efflux pump, as described before.

In assay [4] the test system is Pseudomonas aeruginosa. Nature of the assay: MIC with/without sub-MIC colistin, Pseudomonas aeruginosa. In kind it is cell-based. The conditions noted are these: Pseudomonas aeruginosa, ATCC921. The protocol: as §1
Assay [5] relates to Escherichia coli O157:H7. Nature of the assay: MIC with/without sub-MIC colistin, Escherichia coli O157:H7. In kind it is cell-based. The protocol: as §1
The test system of assay [6] is Acinetobacter baumannii. Nature of the assay: MIC with/without sub-MIC colistin, Acinetobacter baumannii. The assay is classed as cell-based. The protocol:
as §1

The test system of assay [7] is Klebsiella pneumoniae. Description: MIC with/without sub-MIC colistin, Klebsiella pneumoniae. The assay is classed as cell-based. The settings on record: Klebsiella pneumoniae ATCC BAA 2146. As for the experimental part: as §1
The test system of assay [8] is Clostridium difficile. Nature of the assay: MIC against Clostridium difficile, anaerobic broth dilution. In kind it is cell-based. The settings on record: Clostridioides difficile. As for the experimental part:
Clinical isolates of C. difficile were cultured on anaerobic blood agar and incubated anaerobically using container gas pack system at 37° C for 48 hours. The colonies were then suspended in pre-reduced phosphate buffered saline (PBS) and adjusted to 0.5 McFarland standard then diluted 1:300 in pre-reduced Supplemented Brain Heart Infusion broth. The bacterial suspension was then transferred to each well of 96-well plates, the drugs were added to the first row of wells in the required concentrations and serially diluted along the plates. The plates were incubated again anaerobically using container gas pack system at 37° C for 48 hours. The (MIC) recorded was the lowest concentration of the drug showing no visible growth of the bacteria.

Assay [9] deals with Acinetobacter baumannii. Nature of the assay: MIC with/without PMBN, Acinetobacter baumannii. In kind it is cell-based. As for the experimental part: as §1
In assay [10] the test system is Pseudomonas aeruginosa. Nature of the assay: MIC with/without PMBN, Pseudomonas aeruginosa. In kind it is cell-based. The settings on record: Pseudomonas aeruginosa, ATCC9721. The protocol: as §1
Assay [11] relates to Klebsiella pneumoniae. Description: MIC with/without PMBN, Klebsiella pneumoniae. In kind it is cell-based. The protocol: as §1
Assay [12] has as its system Escherichia coli O157:H7. Nature of the assay: MIC with/without PMBN, Escherichia coli O157:H7. In kind it is cell-based. As for the experimental part: as §1
[13] abbreviates: ATCC10231, C. albicans ATCC 10231, unit from abstract, read-out: MIC.
Setting [14] is: ATCC10231, C. albicans ATCC 10231, unit from abstract, read-out: MIC (second value after the slash).
[15] abbreviates: C. albicans NR 29434, unit from abstract, read-out: MIC.
Setting [16] is: C. albicans NR 29434, unit from abstract, read-out: MIC (second value after the slash).
[17] abbreviates: C. albicans NR 29435, unit from abstract, read-out: MIC.
[18] abbreviates: C. albicans NR 29435, unit from abstract, read-out: MIC (second value after the slash).
The mark [19] stands for this setting: C. albicans NR29437, unit from abstract, read-out: MIC.
Setting [20] is: C. albicans NR29438, unit from abstract, read-out: MIC.
Setting [21] is: C. albicans NR29438, unit from abstract, read-out: MIC (second value after the slash).
Where [22] appears, read: C. albicans NR 29446, unit from abstract, read-out: MIC.
[23] abbreviates: C. albicans NR 29448, unit from abstract, read-out: MIC.
The mark [24] stands for this setting: C. albicans NR 29449, unit from abstract, read-out: MIC.
[25] abbreviates: C. albicans NR 29449, unit from abstract, read-out: MIC (second value after the slash).
[26] abbreviates: C. albicans NR 29453, unit from abstract, read-out: MIC.
Where [27] appears, read: C. albicans NR 29453, unit from abstract, read-out: MIC (second value after the slash).
The mark [28] stands for this setting: C. albicans NR 294436, unit from abstract, read-out: MIC.
Setting [29] is: C. albicans NR 294436, unit from abstract, read-out: MIC (second value after the slash).
Where [30] appears, read: Escherichia coli O157:H7 ATCC 35150.
Where [31] appears, read: Escherichia coli O157:H7 ATCC 700728.
Setting [32] is: Acinetobacter baumannii ATCC BAA747.
Setting [33] is: Acinetobacter baumannii ATCC BAA19606.

`CCOC(=O)[C@H](Cc1ccccc1)N1C(=O)/C(=C/c2cccc(Cc3ccc(Cl)c(Cl)c3)c2)SC1=S` [Rh 9, Ethyl (L,Z)-2-(5-(3-(3,4-dichlorobenzyl)benzylidene)-4-oxo-2-thioxothiazolidin-3-yl)-3-phenylpropanoate]: in assay [1], the “antibacterial activity in the presence or absence of HSA” value (shortened to “antibacterial activity”) is “not active”. The MIC (as a rule, the lowest concentration that inhibits growth of the organism) in assay [1] (24 h, Media TSB + 4% HSA) is greater than 64 µM; in [1] (Media TSB), greater than 64 µM.
As for `OC(Cn1cncn1)(Cn1cncn1)c1ccc(F)cc1F` [Fluconazole, fluconazole, reference compound], the MIC is less than 0.5 µM in [2] (setting [13]); 1 µM (≈ 0.306 µg/mL) in assay [2] (setting [14]); less than 0.5 µM in [2] (setting [15]); 1 µM (≈ 0.306 µg/mL) in [2] (setting [16]); less than 0.5 µM in assay [2] (setting [17]); greater than 64 µM in assay [2] (setting [18]). The MIC in [2] (setting [19]) is 1 µM (≈ 0.306 µg/mL); in assay [2] (setting [20]) it was less than 0.5 µM; in assay [2] (setting [21]), greater than 64 µM; in [2] (setting [22]), greater than 64 µM; in [2] (setting [23]), greater than 64 µM; in [2] (setting [24]), less than 0.5 µM. The MIC in assay [2] (setting [25]) was greater than 64 µM; in assay [2] (setting [26]), less than 0.5 µM; in assay [2] (setting [27]), less than 0.5 µM; in assay [2] (setting [28]), less than 0.5 µM; in assay [2] (setting [29]) it was greater than 64 µM.
As to `NC(=O)[C@H](Cc1ccccc1)N1C(=O)/C(=C/c2cccc(-c3ccc(Cl)c(Cl)c3)c2)SC1=S` [Rh 10, (L,Z)-2-(5-((3',4'-dichloro-[1,1'-biphenyl]-3-yl)methylene)-4-oxo-2-thioxothiazolidin-3-yl)-3-phenylpropanamide], in assay [1], the “antibacterial activity” value is reported as “not active”. Besides, the MIC in assay [1] (24 h, Media TSB + 4% HSA) was greater than 64 µM; in [1] (Media TSB), greater than 64 µM.
As to `CCOC(=O)[C@H](Cc1ccccc1)N1C(=O)/C(=C/c2cccc(-c3ccc(Cl)c(Cl)c3)c2)SC1=S` [Rh 8, Ethyl (L,Z)-2-(5-((3',4'-dichloro-[1,1'-biphenyl]-3-yl)methylene)-4-oxo-2-thioxothiazolidin-3-yl)-3-phenylpropanoate], in assay [1], the “antibacterial activity” value is listed as “not active”. Moreover, the MIC was greater than 64 µM in [1] (24 h, Media TSB + 4% HSA) and greater than 64 µM in [1] (Media TSB).
Regarding `C[C@@H]1[C@H](O)[C@@H](C)/C=C/C=C/C=C/C=C/C=C/C=C/C=C/[C@H](O[C@@H]2O[C@H](C)[C@@H](O)[C@H](N)[C@@H]2O)C[C@@H]2O[C@](O)(C[C@@H](O)C[C@@H](O)[C@H](O)CC[C@@H](O)C[C@@H](O)CC(=O)O[C@H]1C)C[C@H](O)[C@H]2C(=O)O` [Amphotericin B, amphotericin B, reference compound], the MIC was determined as 1 µM (≈ 0.924 µg/mL) in assay [2] (setting [13]); 1 µM (≈ 0.924 µg/mL) in assay [2] (setting [14]); 2 µM (≈ 1.85 µg/mL) in assay [2] (setting [15]); 2 µM (≈ 1.85 µg/mL) in assay [2] (setting [16]); 1 µM (≈ 0.924 µg/mL) in [2] (setting [17]); 2 µM (≈ 1.85 µg/mL) in assay [2] (setting [18]). In addition, the MIC was determined as 2 µM (≈ 1.85 µg/mL) in assay [2] (setting [19]); 1 µM (≈ 0.924 µg/mL) in [2] (setting [20]); 4 µM (≈ 3.7 µg/mL) in [2] (setting [21]); 1 µM (≈ 0.924 µg/mL) in [2] (setting [22]); 1 µM (≈ 0.924 µg/mL) in [2] (C. albicans NR 29446, unit from abstract, read-out: MIC (second value after the slash)); 2 µM (≈ 1.85 µg/mL) in [2] (setting [23]). The MIC in assay [2] (C. albicans NR 29448, unit from abstract, read-out: MIC (second value after the slash)) was determined as 2 µM (≈ 1.85 µg/mL); in [2] (setting [24]) it was 1 µM (≈ 0.924 µg/mL); in [2] (setting [25]), 2 µM (≈ 1.85 µg/mL); in assay [2] (setting [26]) it was 1 µM (≈ 0.924 µg/mL); in [2] (setting [27]) it was 2 µM (≈ 1.85 µg/mL); in [2] (setting [28]), 2 µM (≈ 1.85 µg/mL). Besides, in assay [2] (setting [29]), the MIC is 2 µM (≈ 1.85 µg/mL).
For the compound colistin [reference compound], the MIC of colistin in assay [3] is 1 µg/mL; in [4], 1 µg/mL; in [5] (setting [30]) it was 0.125 µg/mL; in assay [5] (setting [31]), 0.0625 µg/mL; in [6] (setting [32]), 0.25 µg/mL; in assay [6] (setting [33]), 0.5 µg/mL. In [7], the MIC of colistin turned out to be 0.5 µg/mL.
On to `Cc1ncc([N+](=O)[O-])n1CCO` [Metronidazole, reference compound], for which the MIC in assay [8] (C. difficile HM-88) turned out to be 0.25 µM (≈ 0.0428 µg/mL); in assay [8] (C. difficile HM-745), 0.5 µM (≈ 0.0856 µg/mL); in assay [8] (C. difficile HM-746) it was 0.125 µM (≈ 0.0214 µg/mL); in [8] (C. difficile Isolate-1 NR-13427), 0.25 µM (≈ 0.0428 µg/mL); in assay [8] (C. difficile Toxigenic Strain P8 NR-32888) it was 1 µM (≈ 0.171 µg/mL).
As to “polymixin B nonapeptide [PMBN, reference compound]”, the “MIC of PMBN” value in assay [9] (setting [32]), in [9] (setting [33]), in assay [10], in [11] (Klebsiella pneumoniae ATCC BAA 1706), in assay [11] (Klebsiella pneumoniae ATCC BAA 2146) and in [12] (setting [30]) was greater than 128 µg/mL throughout. Besides, the “MIC of PMBN” value in assay [12] (setting [31]) was greater than 128 µg/mL.
